In BindingDB's records for doi:10.1016/j.bioorg.2016.09.004 (North-West University, 2016):

Assays:
[1] = target: T1, Amine oxidase [flavin-containing] B (Homo sapiens, UniProt P27338); experiment: MAO-A and MAO-B Fluorescence Assay; conditions: pH 7.4
T1 sequence (P27338 whole entry): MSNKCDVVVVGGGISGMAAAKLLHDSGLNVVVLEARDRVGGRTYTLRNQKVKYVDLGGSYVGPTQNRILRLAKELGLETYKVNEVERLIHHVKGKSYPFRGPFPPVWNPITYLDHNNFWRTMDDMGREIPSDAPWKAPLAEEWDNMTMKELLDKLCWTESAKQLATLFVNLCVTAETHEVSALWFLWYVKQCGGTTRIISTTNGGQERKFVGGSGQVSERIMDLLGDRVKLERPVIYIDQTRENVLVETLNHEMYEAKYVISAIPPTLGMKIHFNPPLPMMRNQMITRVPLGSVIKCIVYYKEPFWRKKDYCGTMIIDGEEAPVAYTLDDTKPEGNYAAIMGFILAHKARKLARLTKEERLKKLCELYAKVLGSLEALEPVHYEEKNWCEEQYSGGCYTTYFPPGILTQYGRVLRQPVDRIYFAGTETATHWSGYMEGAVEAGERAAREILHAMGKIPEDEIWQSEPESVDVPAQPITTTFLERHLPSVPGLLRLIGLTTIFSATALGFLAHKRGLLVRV
Experimental: (§1) Recombinant human MAO-A and MAO-B were used for these studies and kynuramine served as enzyme substrate. Kynuramine is oxidised by both MAO isoforms to yield 4-hydroxyquinoline as ultimate product. For the enzyme reactions MAO-A (0.0075 mg/mL) or MAO-B (0.015 mg/mL), the substrate (50 μM) and the test inhibitors (0.003-100 μM) were combined and incubated for 20 min. For this purpose potassium phosphate buffer (pH 7.4, 100 mM) served as solvent. At endpoint the reactions were alkalinised (NaOH) and the fluorescence intensity of 4-hydroxyquinoline was measured (kex = 310 nm; kem = 400 nm).

[2] = target: T2, Amine oxidase [flavin-containing] A (Homo sapiens, UniProt P21397); experiment: MAO-A and MAO-B Fluorescence Assay; conditions: pH 7.4
T2 sequence (P21397 whole entry): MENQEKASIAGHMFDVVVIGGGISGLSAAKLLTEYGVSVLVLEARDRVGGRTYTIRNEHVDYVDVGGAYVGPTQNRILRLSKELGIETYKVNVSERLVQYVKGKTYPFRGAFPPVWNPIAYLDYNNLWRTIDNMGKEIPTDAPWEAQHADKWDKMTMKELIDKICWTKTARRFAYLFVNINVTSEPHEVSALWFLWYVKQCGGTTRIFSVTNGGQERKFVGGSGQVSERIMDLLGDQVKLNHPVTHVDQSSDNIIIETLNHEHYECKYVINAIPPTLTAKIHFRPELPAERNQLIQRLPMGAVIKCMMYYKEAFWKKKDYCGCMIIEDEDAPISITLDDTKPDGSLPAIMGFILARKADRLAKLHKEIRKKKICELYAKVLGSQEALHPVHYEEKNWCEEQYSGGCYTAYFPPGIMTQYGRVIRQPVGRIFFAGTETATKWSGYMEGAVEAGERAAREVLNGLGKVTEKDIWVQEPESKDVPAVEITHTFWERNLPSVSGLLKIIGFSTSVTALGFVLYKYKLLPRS
Experimental: as §1

SMILES	IC50 [1] [nM]	IC50 [2] [nM]
O=C1/C(=C/C2CCCCC2)Cc2ccccc21 [(2E)-2-(Cyclohexylmethylidene)-2,3-dihydro-1H-inden-1-one (11l)]	229	5210
COc1ccc2c(c1)C/C(=C\C1CCCCC1)C2=O [(2E)-2-(Cyclohexylmethylidene)-5-methoxy-2,3-dihydro-1Hinden-1-one (11m)]	139	–
O=C1/C(=C/c2ccccn2)Cc2ccccc21 [(2E)-2-(Pyridin-2-ylmethylidene)-2,3-dihydro-1H-inden-1-one (11c)]	1530	853
O=C1/C(=C/c2cccnc2)Cc2ccccc21 [(2E)-2-(Pyridin-3-ylmethylidene)-2,3-dihydro-1H-inden-1-one (11a)]	1270	61
COc1ccc2c(c1)C/C(=C\c1ccc(Br)o1)C2=O [(2E)-2-[(5-Bromofuran-2-yl)methylidene]-5-methoxy-2,3-dihydro-1H-inden-1-one (11o)]	4.4	183
COc1ccc2c(c1)C/C(=C\c1ccccn1)C2=O [(2E)-5-Methoxy-2-(pyridin-2-ylmethylidene)-2,3-dihydro-1Hinden-1-one (11d)]	112	302
COc1ccc2c(c1)C/C(=C\c1ccc(C)o1)C2=O [(2E)-5-Methoxy-2-[(5-methylfuran-2-yl)methylidene]-2,3-dihydro-1H-inden-1-one (11n)]	26	4730

Further compounds by falling IC50 [1], results first:

IC50 [1] [nM]	IC50 [2] [nM]	SMILES
889	1200	O=C1/C(=C/c2ccco2)Cc2ccccc21
465	471	O=C1/C(=C/c2cccnc2Cl)Cc2ccccc21 [(2E)-2-[(2-Chloropyridin-3-yl)methylidene]-2,3-dihydro-1Hinden-1-one (11e)]
418	1330	O=C1/C(=C/c2cccs2)Cc2ccccc21 [(2E)-2-(Thiophen-2-ylmethylidene)-2,3-dihydro-1H-inden-1-one (11h)]
394	2330	COc1ccc2c(c1)C/C(=C\c1ccco1)C2=O [(2E)-2-(Furan-2-ylmethylidene)-5-methoxy-2,3-dihydro-1Hinden-1-one (11g)]
338	8550	COc1ccc2c(c1)C/C(=C\c1cccnc1)C2=O [(2E)-5-Methoxy-2-(pyridin-3-ylmethylidene)-2,3-dihydro-1Hinden-1-one (11b)]
114	1510	O=C1/C(=C/c2ccsc2)Cc2ccccc21 [(2E)-2-(Thiophen-3-ylmethylidene)-2,3-dihydro-1H-inden-1-one (11k)]
114	5180	COc1ccc2c(c1)C/C(=C\c1cccs1)C2=O [(2E)-5-Methoxy-2-(thiophen-2-ylmethylidene)-2,3-dihydro-1H-inden-1-one (11i)]
